Test results published in ChEMBL document CHEMBL3991601, “The target landscape of clinical kinase drugs” (Science, 2017).
Active and inactive are the calls of the source. On the calls: in the data inactive means no Kd found up to 30 µM.

Assays:
[1] = target: T1, RNA cytidine acetyltransferase (Homo sapiens, UniProt Q9H0A0)
T1 sequence (Q9H0A0 whole entry): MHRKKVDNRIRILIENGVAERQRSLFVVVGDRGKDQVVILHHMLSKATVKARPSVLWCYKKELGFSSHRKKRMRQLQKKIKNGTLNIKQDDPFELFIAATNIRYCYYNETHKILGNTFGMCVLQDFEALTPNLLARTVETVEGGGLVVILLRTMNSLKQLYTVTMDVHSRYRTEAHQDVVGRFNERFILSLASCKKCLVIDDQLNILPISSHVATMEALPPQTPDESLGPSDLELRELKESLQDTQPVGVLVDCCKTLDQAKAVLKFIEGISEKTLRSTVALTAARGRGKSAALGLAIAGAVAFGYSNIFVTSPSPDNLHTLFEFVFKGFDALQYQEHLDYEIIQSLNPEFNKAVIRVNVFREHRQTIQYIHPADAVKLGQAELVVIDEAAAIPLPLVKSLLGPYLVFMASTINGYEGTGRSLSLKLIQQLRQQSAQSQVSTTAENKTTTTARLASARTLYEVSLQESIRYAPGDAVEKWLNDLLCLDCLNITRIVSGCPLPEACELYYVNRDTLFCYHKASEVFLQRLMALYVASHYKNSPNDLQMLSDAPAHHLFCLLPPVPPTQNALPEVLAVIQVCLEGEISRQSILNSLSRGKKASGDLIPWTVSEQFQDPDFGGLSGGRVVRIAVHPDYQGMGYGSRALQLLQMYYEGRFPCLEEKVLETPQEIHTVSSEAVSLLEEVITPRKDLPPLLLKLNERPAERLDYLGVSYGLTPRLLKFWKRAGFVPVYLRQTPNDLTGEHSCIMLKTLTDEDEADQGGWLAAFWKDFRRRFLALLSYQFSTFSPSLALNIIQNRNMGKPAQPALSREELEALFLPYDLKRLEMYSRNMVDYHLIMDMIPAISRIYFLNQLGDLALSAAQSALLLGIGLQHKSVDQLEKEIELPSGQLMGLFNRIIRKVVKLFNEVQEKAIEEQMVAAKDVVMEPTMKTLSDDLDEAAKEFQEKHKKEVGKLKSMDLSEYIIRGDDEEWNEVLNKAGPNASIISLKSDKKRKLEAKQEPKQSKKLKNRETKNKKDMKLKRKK

[2] = target: T2, Very long-chain specific acyl-CoA dehydrogenase, mitochondrial (Homo sapiens, UniProt P49748)
T2 sequence (P49748 whole entry): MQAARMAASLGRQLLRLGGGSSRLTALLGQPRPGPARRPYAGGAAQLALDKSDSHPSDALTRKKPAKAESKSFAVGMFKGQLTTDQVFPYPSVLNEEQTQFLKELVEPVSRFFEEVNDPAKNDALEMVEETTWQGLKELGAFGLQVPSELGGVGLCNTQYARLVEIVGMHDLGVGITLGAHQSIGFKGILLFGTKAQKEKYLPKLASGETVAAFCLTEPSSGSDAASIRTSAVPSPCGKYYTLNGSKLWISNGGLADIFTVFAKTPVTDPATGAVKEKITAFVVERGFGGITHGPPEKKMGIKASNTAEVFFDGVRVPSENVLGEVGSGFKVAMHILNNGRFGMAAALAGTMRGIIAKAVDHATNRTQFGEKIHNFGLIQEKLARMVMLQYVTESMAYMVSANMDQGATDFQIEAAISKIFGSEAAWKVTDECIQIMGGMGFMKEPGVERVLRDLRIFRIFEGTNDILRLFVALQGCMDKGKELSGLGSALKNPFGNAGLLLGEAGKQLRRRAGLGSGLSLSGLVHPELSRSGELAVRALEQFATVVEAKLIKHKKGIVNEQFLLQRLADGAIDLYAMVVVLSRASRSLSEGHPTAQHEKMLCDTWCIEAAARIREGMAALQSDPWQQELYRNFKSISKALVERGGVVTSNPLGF

[3] = target: T3, Mitogen-activated protein kinase kinase kinase 6 (Homo sapiens, UniProt O95382)
T3 sequence (O95382 whole entry): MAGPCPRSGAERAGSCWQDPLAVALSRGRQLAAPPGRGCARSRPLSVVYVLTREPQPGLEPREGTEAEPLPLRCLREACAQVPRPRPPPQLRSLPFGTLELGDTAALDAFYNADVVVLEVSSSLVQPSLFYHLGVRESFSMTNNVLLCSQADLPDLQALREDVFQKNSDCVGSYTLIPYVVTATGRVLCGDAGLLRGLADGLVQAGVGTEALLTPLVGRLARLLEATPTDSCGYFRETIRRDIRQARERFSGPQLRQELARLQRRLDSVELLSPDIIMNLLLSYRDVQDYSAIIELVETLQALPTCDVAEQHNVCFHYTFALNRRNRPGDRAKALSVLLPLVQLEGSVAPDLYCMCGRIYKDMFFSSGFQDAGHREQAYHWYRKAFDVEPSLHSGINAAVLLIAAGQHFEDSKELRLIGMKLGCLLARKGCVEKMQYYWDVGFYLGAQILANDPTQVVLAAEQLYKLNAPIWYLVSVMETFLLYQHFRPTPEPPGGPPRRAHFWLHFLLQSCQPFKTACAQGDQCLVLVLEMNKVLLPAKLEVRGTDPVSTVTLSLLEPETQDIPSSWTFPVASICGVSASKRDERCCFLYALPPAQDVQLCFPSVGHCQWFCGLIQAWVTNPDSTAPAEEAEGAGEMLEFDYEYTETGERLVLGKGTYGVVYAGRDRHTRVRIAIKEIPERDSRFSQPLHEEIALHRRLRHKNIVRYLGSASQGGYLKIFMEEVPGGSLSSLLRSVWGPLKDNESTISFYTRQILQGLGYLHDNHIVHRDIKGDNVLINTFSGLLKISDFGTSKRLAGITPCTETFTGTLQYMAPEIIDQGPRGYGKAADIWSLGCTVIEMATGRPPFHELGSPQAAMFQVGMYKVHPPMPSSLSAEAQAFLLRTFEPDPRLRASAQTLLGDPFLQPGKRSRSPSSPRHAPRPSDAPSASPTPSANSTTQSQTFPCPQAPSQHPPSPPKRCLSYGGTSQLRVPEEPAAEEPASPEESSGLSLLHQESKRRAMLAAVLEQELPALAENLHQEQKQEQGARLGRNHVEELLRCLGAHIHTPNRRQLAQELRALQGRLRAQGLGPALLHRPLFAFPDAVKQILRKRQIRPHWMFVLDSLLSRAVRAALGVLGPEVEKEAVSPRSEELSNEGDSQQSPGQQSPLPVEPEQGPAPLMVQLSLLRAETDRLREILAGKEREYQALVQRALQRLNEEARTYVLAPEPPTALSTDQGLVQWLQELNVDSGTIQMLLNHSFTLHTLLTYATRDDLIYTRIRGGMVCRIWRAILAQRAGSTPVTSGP

| Kd [1] | Kd [2] | Kd [3] | Structure (SMILES) |
| --- | --- | --- | --- |
| > 30 µM (inactive) | > 30 µM (inactive) | > 30 µM (inactive) | CC(C)(O)CC(=O)NCCn1ccc2ncnc(Nc3ccc(Oc4cccc(C(F)(F)F)c4)c(Cl)c3)c21 [TAK-285] |
| > 30 µM (inactive) | > 30 µM (inactive) | > 30 µM (inactive) | COc1cc2ncnc3c2cc1OCCCCCN(C)Cc1ccc(Br)cc1N3 [JNJ-26483327] |
| > 30 µM (inactive) | > 30 µM (inactive) | > 30 µM (inactive) | Cn1c(=O)c(F)c(Nc2ccc(I)cc2F)c2c(=O)n(C[C@@H](O)CO)cnc21 [TAK-733] |
| > 30 µM (inactive) | > 30 µM (inactive) | > 30 µM (inactive) | COc1cccc(Nc2ncnn3ccc(CN4CC[C@@H](N)[C@H](O)C4)c23)c1 [BMS-690514] |
| > 30 µM (inactive) | > 30 µM (inactive) | > 30 µM (inactive) | COc1cccc2cc(-c3nc([C@H]4CC[C@H](C(=O)O)CC4)n4ncnc(N)c34)[nH]c12 [OSI-027] |
| > 30 µM (inactive) | > 30 µM (inactive) | > 30 µM (inactive) | Cc1cc(C(=O)Nc2cc(Oc3ccc4nc(NC(=O)C5CC5)cn4n3)ccc2C)n(C)n1 [TAK-593] |

The remaining lines, values behind:

| Structure (SMILES) | Kd [1] | Kd [2] | Kd [3] |
| --- | --- | --- | --- |
| C=CCn1c(=O)c2cnc(Nc3ccc(N4CCN(C)CC4)cc3)nc2n1-c1cccc(C(C)(C)O)n1 [ADAVOSERTIB] | > 30 µM (inactive) | > 30 µM (inactive) | > 30 µM (inactive) |
| COCCN1CCN(Cc2ccc(-c3n[nH]c4c3C(=O)c3c(NC(=O)NN5CCOCC5)cccc3-4)cc2)CC1 [RGB-286638] | > 30 µM (inactive) | > 30 µM (inactive) | > 30 µM (inactive) |
| C[C@]1(O)C[C@@H](c2nc(-c3ccc4ccc(-c5ccccc5)nc4c3)c3c(N)nccn32)C1 [LINSITINIB] | > 30 µM (inactive) | > 30 µM (inactive) | > 30 µM (inactive) |
| COc1cc2ncnc(Nc3ccc(F)c(Cl)c3)c2cc1NC(=O)/C=C/CN1CCCCC1 [DACOMITINIB ANHYDROUS] | > 30 µM (inactive) | > 30 µM (inactive) | > 30 µM (inactive) |
| C#Cc1cccc(Nc2ncnc3cc4c(cc23)OCCOCCOCCO4)c1 [ICOTINIB] | > 30 µM (inactive) | > 30 µM (inactive) | > 30 µM (inactive) |
| O=S(=O)(c1cccc2cnccc12)N1CCCNCC1 [FASUDIL] | > 30 µM (inactive) | > 30 µM (inactive) | > 30 µM (inactive) |
| Cc1c(Cn2c(C)nc3c(C(=O)O)cc(N4CCOCC4)cc32)cccc1C(F)(F)F [GSK-2636771] | > 30 µM (inactive) | > 30 µM (inactive) | > 30 µM (inactive) |
| CN(c1ncccc1CNc1nc(Nc2ccc3c(c2)CC(=O)N3)ncc1C(F)(F)F)S(C)(=O)=O [PF-00562271] | > 30 µM (inactive) | > 30 µM (inactive) | > 30 µM (inactive) |
| COc1ccc2c(OCc3nnc4ccc(-c5ccccc5)nn34)ccnc2c1 [AMG-208] | > 30 µM (inactive) | > 30 µM (inactive) | > 30 µM (inactive) |
| CNC(=O)c1cccc(-c2ccc3c(N4CCOC[C@@H]4C)nc(N4CCOC[C@@H]4C)nc3n2)c1 [VISTUSERTIB] | > 30 µM (inactive) | > 30 µM (inactive) | > 30 µM (inactive) |
| NC[C@@](O)(c1ccc(Cl)cc1)c1ccc(-c2cn[nH]c2)cc1 [AT-13148] | > 30 µM (inactive) | > 30 µM (inactive) | > 30 µM (inactive) |
| COc1cc2nccc(Oc3ccc(NC(=O)C4(C(=O)Nc5ccc(F)cc5)CC4)cc3)c2cc1OC [CABOZANTINIB] | > 30 µM (inactive) | > 30 µM (inactive) | > 30 µM (inactive) |
| C=CCN(/C=C1/C(=O)O[C@H](COC)[C@@]2(C)C1=C(O)C(=O)C1=C2[C@H](OC(C)=O)C[C@]2(C)C(=O)CC[C@@H]12)CC=C [SONOLISIB] | > 30 µM (inactive) | > 30 µM (inactive) | > 30 µM (inactive) |
| CCc1nc(C(N)=O)c(Nc2ccc(N3CCC(N4CCN(C)CC4)CC3)c(OC)c2)nc1NC1CCOCC1 [GILTERITINIB] | > 30 µM (inactive) | > 30 µM (inactive) | > 30 µM (inactive) |
| COc1cc2ncnc(Nc3ccc(O)cc3)c2cc1OC [WHI-P131] | > 30 µM (inactive) | > 30 µM (inactive) | > 30 µM (inactive) |
| O[C@H]1CC[C@H](Nc2ncc3nc(Nc4c(F)cc(F)cc4F)n([C@H]4CCOC4)c3n2)CC1 [TANZISERTIB] | > 30 µM (inactive) | > 30 µM (inactive) | > 30 µM (inactive) |
| Cc1ccc(C(=O)Nc2ccc(Oc3cc4cnn(C)c4cc3-c3cn[nH]c3)c(F)c2)c(=O)n1-c1ccc(F)cc1 [MERESTINIB] | > 30 µM (inactive) | > 30 µM (inactive) | > 30 µM (inactive) |
| Cn1cc(-c2[nH]c3cc(NC(=O)[C@H](N)C4CCCCC4)cc4c3c2C=NNC4=O)cn1 | > 30 µM (inactive) | > 30 µM (inactive) | > 30 µM (inactive) |
| Cn1c(=O)n(-c2ccc(C(C)(C)C#N)cc2)c2c3cc(-c4cnc5ccccc5c4)ccc3ncc21 [DACTOLISIB] | > 30 µM (inactive) | > 30 µM (inactive) | > 30 µM (inactive) |
| C=CC(=O)Nc1cc(Nc2nccc(-c3cn(C)c4ccccc34)n2)c(OC)cc1N(C)CCN(C)C [OSIMERTINIB] | > 30 µM (inactive) | > 30 µM (inactive) | > 30 µM (inactive) |
| Cc1cc(-c2cc(OC(=O)c3ccccc3)ccc2Cl)cc2nnc(Nc3ccc(OCCN4CCCC4)cc3)nc12 [TG100-801] | > 30 µM (inactive) | > 30 µM (inactive) | > 30 µM (inactive) |
| CNC(=O)c1ccc(Nc2ncc(C(F)(F)F)c(NCc3nccnc3N(C)S(C)(=O)=O)n2)cc1 [DEFACTINIB] | > 30 µM (inactive) | > 30 µM (inactive) | > 30 µM (inactive) |
